The numbers were not newly measured in patent US12295916B2, “Process for making aqueous therapeutic particle having stable exterior water clustering with nanosized thickness” (priority 2019, dated 2025), which cites them from elsewhere.

Molecules are shown by their SMILES.

For this data set the following is noted: given by injection.

As for `CNC1(c2ccccc2Cl)CCCCC1=O` (centres unmarked) [Ketamine], the duration of effects was not above 25 min and the “time to begin of effects” value was “five”.
